Values quoted from earlier work in patent US20040005304A1, “Novel compositions and methods for treating neurological disorders and associated gastrointestinal conditions” (MAK Wood, Inc., priority 2002, published 2004).

Tested on: DPPIV
Conditions: cultured mouse intestinal wall cells (enterocyte cells)

O=C[C@H](O)[C@@H](O)[C@@H](O)[C@H](O)CO [galactose]
expression of DPPIV: increase the expression of DPPIV
